ChEMBL document CHEMBL1201862, “PubChem BioAssay data set” (2004)
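Results reflect a 48-hour exposure of cells in 96-well plates to compound at five concentrations. The concentration for 50% growth inhibition is given as GI50.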 Calls of active or inactive are those of the source. No stated cut-off is given here; in the data, active = GI50 up to about 1.1 µM and inactive = higher.

Legend:
Test in all cases: NCI tumour cell line growth inhibition, 48 h
[1] = test system: SW-620
[2] = test system: UO-31
[3] = test system: ACHN
[4] = test system: A498
[5] = test system: T47D
[6] = test system: RPMI-8226
[7] = test system: RXF 393
[8] = test system: 786-0
[9] = test system: HOP-92
[10] = test system: TK-10
[11] = test system: MDA-N
[12] = test system: K562
[13] = test system: SF-539
[14] = test system: LOX IMVI
[15] = test system: HCT-15
[16] = test system: SNB-75
[17] = test system: OVCAR-4
[18] = test system: SK-MEL-5
[19] = test system: U-251
[20] = test system: SF-295
[21] = test system: NCI-H226
[22] = test system: A549
[23] = test system: SK-MEL-2
[24] = test system: BT-549
[25] = test system: CCRF-CEM
[26] = test system: IGROV-1
[27] = test system: UACC-257
[28] = test system: HCT-116
[29] = test system: HOP-62
[30] = test system: OVCAR-5
[31] = test system: HL-60
[32] = test system: NCI/ADR-RES
[33] = test system: KM12
[34] = test system: NCI-H460
[35] = test system: DU-145
[36] = test system: Malme-3M
[37] = test system: MDA-MB-231
[38] = test system: SF-268
[39] = test system: Hs-578T
[40] = test system: CAKI-1
[41] = test system: EKVX
[42] = test system: HCC 2998
[43] = test system: NCI-H23
[44] = test system: MOLT-4
[45] = test system: SNB-19
[46] = test system: HT-29
[47] = test system: OVCAR-3
[48] = test system: OVCAR-8
[49] = test system: SR
[50] = test system: SK-MEL-28
[51] = test system: COLO 205
[52] = test system: MDA-MB-435
[53] = test system: SK-OV-3
[54] = test system: UACC-62
[55] = test system: PC-3
[56] = test system: MCF7
[57] = test system: SN12C
[58] = test system: M14
[59] = test system: NCI-H522

With `CCCN(CCCCN1C(=O)c2ccccc2C1=O)CC1COc2ccccc2O1` (stereo not drawn) the GI50 [1] was > 100 µM (inactive), the GI50 [2] was 51.9 µM (inactive) and the GI50 [3] was > 100 µM (inactive). For the same molecule, the GI50 [4] was > 100 µM (inactive), the GI50 [5] was 42.9 µM (inactive) and the GI50 [6] was 26.4 µM (inactive). For the same molecule, the GI50 [7] was 94.4 µM (inactive), the GI50 [8] was > 100 µM (inactive) and the GI50 [9] was 29.4 µM (inactive). For the same molecule, the GI50 [10] was > 100 µM (inactive), the GI50 [11] was > 100 µM (inactive) and the GI50 [12] was 42.1 µM (inactive). The GI50 [13] was 83.2 µM (inactive), the GI50 [14] was > 100 µM (inactive) and the GI50 [15] was 52.2 µM. For the same molecule, the GI50 [16] was > 100 µM (inactive), the GI50 [17] was > 100 µM (inactive) and the GI50 [18] was 28.6 µM (inactive). For the same molecule, the GI50 [19] was 74 µM (inactive), the GI50 [20] was > 100 µM (inactive) and the GI50 [21] was 53 µM (inactive). The GI50 [22] was > 100 µM (inactive), the GI50 [23] was > 100 µM (inactive) and the GI50 [24] was > 100 µM (inactive). For the same molecule, the GI50 [25] was 25.8 µM (inactive), the GI50 [26] was > 100 µM (inactive) and the GI50 [27] was 65.9 µM (inactive). For the same molecule, the GI50 [28] was 59.4 µM (inactive), the GI50 [29] was > 100 µM (inactive) and the GI50 [30] was > 100 µM (inactive). For the same molecule, the GI50 [31] was 14.1 µM (inactive), the GI50 [32] was 61.1 µM (inactive) and the GI50 [33] was > 100 µM (inactive). For the same molecule, the GI50 [34] was 53.5 µM (inactive), the GI50 [35] was > 100 µM (inactive) and the GI50 [36] was > 100 µM (inactive). For the same molecule, the GI50 [37] was > 100 µM (inactive), the GI50 [38] was > 100 µM (inactive) and the GI50 [39] was > 100 µM (inactive). For the same molecule, the GI50 [40] was > 100 µM (inactive), the GI50 [41] was > 100 µM (inactive) and the GI50 [42] was 83.2 µM (inactive). The GI50 [43] was 55.3 µM (inactive), the GI50 [44] was 23.3 µM (inactive) and the GI50 [45] was > 100 µM (inactive). The GI50 [46] was 33.6 µM (inactive), the GI50 [47] was > 100 µM (inactive) and the GI50 [48] was > 100 µM (inactive). For the same molecule, the GI50 [49] was 25.1 µM (inactive), the GI50 [50] was 88.5 µM (inactive) and the GI50 [51] was 50.1 µM (inactive). For the same molecule, the GI50 [52] was > 100 µM (inactive), the GI50 [53] was > 100 µM (inactive) and the GI50 [54] was > 100 µM (inactive). The GI50 [55] was 51.9 µM (inactive), the GI50 [56] was 53.1 µM (inactive) and the GI50 [57] was > 100 µM (inactive). The GI50 [58] was > 100 µM (inactive) and the GI50 [59] was > 100 µM (inactive).

With `COC1(c2cccs2)c2ccccc2C(OC)(c2cccs2)c2ccccc21` (stereo not drawn) the GI50 [1] was > 100 µM (inactive), the GI50 [2] was > 100 µM (inactive) and the GI50 [3] was > 100 µM (inactive). The GI50 [4] was 28.5 µM (inactive), the GI50 [5] was 85.7 µM (inactive) and the GI50 [6] was 63.2 µM (inactive). The GI50 [7] was 52.4 µM (inactive), the GI50 [8] was 35.3 µM (inactive) and the GI50 [9] was 54.2 µM (inactive). For the same molecule, the GI50 [10] was 36.8 µM (inactive), the GI50 [11] was > 100 µM (inactive) and the GI50 [12] was 36 µM (inactive). The GI50 [13] was 36.5 µM (inactive), the GI50 [14] was > 100 µM (inactive) and the GI50 [15] was over 100 µM. For the same molecule, the GI50 [16] was 59.8 µM (inactive), the GI50 [17] was 33.7 µM (inactive) and the GI50 [18] was > 100 µM (inactive). The GI50 [19] was 42.4 µM (inactive), the GI50 [20] was 28.3 µM (inactive) and the GI50 [21] was > 100 µM (inactive). The GI50 [22] was 94.8 µM (inactive), the GI50 [23] was 50.5 µM (inactive) and the GI50 [24] was 78.5 µM (inactive). For the same molecule, the GI50 [25] was > 100 µM (inactive), the GI50 [26] was > 100 µM (inactive) and the GI50 [27] was > 100 µM (inactive). The GI50 [28] was 17.4 µM (inactive), the GI50 [29] was 42.3 µM (inactive) and the GI50 [30] was 44.4 µM (inactive). For the same molecule, the GI50 [31] was > 100 µM (inactive), the GI50 [32] was 92.7 µM (inactive) and the GI50 [33] was > 100 µM (inactive). For the same molecule, the GI50 [34] was > 100 µM (inactive), the GI50 [35] was 71 µM (inactive) and the GI50 [36] was > 100 µM (inactive). For the same molecule, the GI50 [37] was 26.4 µM (inactive), the GI50 [38] was 48.5 µM (inactive) and the GI50 [39] was 0.518 µM (active). The GI50 [40] was > 100 µM (inactive), the GI50 [41] was 36.9 µM (inactive) and the GI50 [42] was 49.3 µM (inactive). For the same molecule, the GI50 [43] was 23.9 µM (inactive), the GI50 [44] was 16.7 µM (inactive) and the GI50 [45] was 42.8 µM (inactive). For the same molecule, the GI50 [46] was 50.8 µM (inactive), the GI50 [47] was > 100 µM (inactive) and the GI50 [48] was > 100 µM (inactive). For the same molecule, the GI50 [49] was 40.7 µM (inactive), the GI50 [50] was > 100 µM (inactive) and the GI50 [51] was 85.5 µM (inactive). The GI50 [52] was > 100 µM (inactive), the GI50 [53] was 86.1 µM (inactive) and the GI50 [54] was 47.3 µM (inactive). The GI50 [55] was 42.9 µM (inactive), the GI50 [56] was 84.7 µM (inactive) and the GI50 [57] was > 100 µM (inactive). For the same molecule, the GI50 [58] was 81.1 µM (inactive) and the GI50 [59] was 97.9 µM (inactive).
